Results published in US9981942B2, “Piperidine derivatives having multimodal activity against pain” (LABORATORIOS DEL DR. ESTEVE S.A., priority 2013, dated 2018).

Target: σ1 receptor and the μ-opiod receptor
Assay: μ and σ1 dual binding: combined class from the Ki of both radioligand assays
Design: species or system human; key to μ and σ1 dual binding: +: Both Ki-μ and Ki-σ1>=500 nM; ++: One Ki<500 nM while the other Ki is >=500 nM; +++: Both Ki-μ and Ki-σ1<500 nM; ++++: Both Ki-μ and Ki-σ1<100 nM
Details: transfected HEK-293 membranes (σ1), transfected CHO-K1 cell membranes (μ); for μ and σ1 dual binding: combined class for Ki-μ and Ki-σ1
Protocol: To investigate binding properties of σ1 receptor ligands to human σ1 receptor, transfected HEK-293 membranes and [^3H](+)-pentazocine (Perkin Elmer, NET-1056), as the radioligand, were used. The assay was carried out with 7 μg of membrane suspension, 5 nM of [^3H](+)-pentazocine in either absence or presence of either buffer or 10 μM Haloperidol for total and non-specific binding, respectively. Binding buffer contained Tris-HCl 50 mM at pH 8. Plates were incubated at 37° C. for 120 minutes. After the incubation period, the reaction mix was then transferred to MultiScreen HTS, FC plates (Millipore), filtered and plates were washed 3 times with ice-cold 10 mM Tris-HCL (pH7.4). Filters were dried and counted at approximately 40% efficiency in a MicroBeta scintillation counter (Perkin-Elmer) using EcoScint liquid scintillation cocktail
To investigate binding properties of mu-opioid receptor ligands to human μ-opioid receptor, transfected CHO-K1 cell membranes and [^3H]-DAMGO (Perkin Elmer, ES-542-C), as the radioligand, were used. The assay was carried out with 20 μg of membrane suspension, 1 nM of [^3H]-DAMGO in either absence or presence of either buffer or 10 μM Naloxone for total and non-specific binding, respectively. Binding buffer contained Tris-HCl 50 mM, MgCl2 5 mM at pH 7.4. Plates were incubated at 27° C. for 60 minutes. After the incubation period, the reaction mix was then transferred to MultiScreen HTS, FC plates (Millipore), filtered and plates were washed 3 times with ice-cold 10 mM Tris-HCL (pH 7.4). Filters were dried and counted at approximately 40% efficiency in a MicroBeta scintillation counter (Perkin-Elmer) using EcoScint liquid scintillation cocktail.
The following scale as been adopted for representing the binding to the σ1 receptor and the μ-opiod receptor expressed as Ki: • + Both Ki-μ and Ki-σ1>=500 nM • ++ One Ki<500 nM while the other Ki is >=500 nM • +++ Both Ki-μ and Ki-σ1<500 nM • ++++ Both Ki-μ and Ki-σ1<100 nM

| Compound | Ki range for both μ and σ1 (dual-binding class) [nM] | μ and σ1 dual binding |
| --- | --- | --- |
| Oc1cccc(C2CCN(Cc3cn(-c4ccc(Cl)c(Cl)c4)nn3)CC2)c1 [Example 40, 3-(1-((1-(3,4-dichlorophenyl)-1H-1,2,3-triazol-4-yl)methyl)piperidin-4-yl)phenol] | < 100 | – |
| Oc1cccc(C2CCN(Cc3cn(-c4ccc(Cl)cc4Cl)nn3)CC2)c1 [Example 41, 3-(1-((1-(2,4-dichlorophenyl)-1H-1,2,3-triazol-4-yl)methyl)piperidin-4-yl)phenol] | < 100 | – |
| Cc1nnc(-c2cccc(C3CCN(Cc4cn(-c5ccccc5)nn4)CC3)c2)o1 [Example 42, 2-methyl-5-(3-(1-((1-phenyl-1H-1,2,3-triazol-4-yl)methyl)piperidin-4-yl)phenyl)-1,3,4-oxadiazole] | < 500 | – |
| N#Cc1ccc(Cn2cc(CN3CCC(c4cccc(O)c4)CC3)nn2)cc1 [Example 43, 4-((4-((4-(3-hydroxyphenyl)piperidin-1-yl)methyl)-1H-1,2,3-triazol-1-yl)methyl)benzonitrile] | < 100 | – |
| COc1cccc(-n2cc(CN3CCC(c4cccc(O)c4)CC3)nn2)c1 [Example 44, 3-(1-((1-(3-methoxyphenyl)-1H-1,2,3-triazol-4-yl)methyl)piperidin-4-yl)phenol] | < 100 | – |
| CCN(CC)C(=O)Cn1cc(CN2CCC(c3cccc(O)c3)CC2)nn1 [Example 45, N,N-diethyl-2-(4-((4-(3-hydroxyphenyl)piperidin-1-yl)methyl)-1H-1,2,3-triazol-1-yl)acetamide] | – | ++ |
| Oc1cccc(C2CCN(Cc3cn(C4CCc5ccccc54)nn3)CC2)c1 (stereo not shown) [Example 46, 3-(1-((1-(2,3-dihydro-1H-inden-1-yl)-1H-1,2,3-triazol-4-yl)methyl)piperidin-4-yl)phenol] | < 100 | – |
| CS(=O)(=O)c1cccc(C2CCN(Cc3cn(-c4ccccc4)nn3)CC2)c1 [Example 47, 4-(3-(methylsulfonyl)phenyl)-1-((1-phenyl-1H-1,2,3-triazol-4-yl)methyl)piperidine] | < 500 | – |
| CS(=O)(=O)Nc1cccc(C2CCN(Cc3cn(C4CCc5ccccc54)nn3)CC2)c1 (stereo not shown) [Example 48, N-(3-(1-((1-(2,3-dihydro-1H-inden-1-yl)-1H-1,2,3-triazol-4-yl)methyl)piperidin-4-yl)phenyl)methanesulfonamide] | < 500 | – |
| CC(=O)Nc1nc2c(C3CCN(Cc4cn(-c5ccccc5)nn4)CC3)cccc2s1 [Example 49, N-(4-(1-((1-Phenyl-1H-1,2,3-triazol-4-yl)methyl)piperidin-4-yl)benzo[d]thiazol-2-yl)acetamide] | < 100 | – |
| Nc1nc2c(C3CCN(Cc4cn(-c5ccccc5)nn4)CC3)cccc2s1 [Example 50, 4-(1-((1-phenyl-1H-1,2,3-triazol-4-yl)methyl)piperidin-4-yl)benzo[d]thiazol-2-amine] | < 100 | – |
| CC(C)NC(=O)c1cccc(C2CCN(Cc3cn(Cc4ccccc4)nn3)CC2)c1 [Example 51, 3-(1-((1-benzyl-1H-1,2,3-triazol-4-yl)methyl)piperidin-4-yl)-N-isopropylbenzamide] | ≥ 500 | – |
| Cc1ccc(C2CCN(Cc3cn(-c4ccccc4)nn3)CC2)cc1O [Example 52, 2-methyl-5-(1-((1-phenyl-1H-1,2,3-triazol-4-yl)methyl)piperidin-4-yl)phenol] | < 100 | – |
| CS(=O)(=O)Nc1cccc(C2CCN(Cc3cn(-c4ccccc4)nn3)CC2)c1F [Example 53, N-(2-fluoro-3-(1-((1-phenyl-1H-1,2,3-triazol-4-yl)methy)piperidin-4-yl)phenyl)methanesulfonamide] | < 100 | – |
| Oc1cccc(C2CCN(Cc3cn(Cc4ccncc4)nn3)CC2)c1 [Example 54, 3-(1-((1-(pyridin-4-ylmethyl)-1H-1,2,3-triazol-4-yl)methyl)piperidin-4-yl)phenol] | < 500 | – |
| Oc1cccc(C2CCN(Cc3cn(Cc4ccccn4)nn3)CC2)c1 [Example 55, 3-(1-((1-(pyridin-2-ylmethyl)-1H-1,2,3-triazol-4-yl)methyl)piperidin-4-yl)phenol] | < 500 | – |

| Compound | Ki range for both μ and σ1 (dual-binding class) [nM] | μ and σ1 dual binding |
| --- | --- | --- |
| CCNC(=O)Nc1cccc(C2CCN(Cc3cn(-c4ccccc4)nn3)CC2)c1 [Example 56, 1-ethyl-3-(3-(1-((1-phenyl-1H-1,2,3-triazol-4-yl)methyl)piperidin-4-yl)phenyl)urea] | < 500 | – |
| CS(=O)(=O)Nc1cccc(C2CCN(Cc3cn(Cc4ccc(C(F)(F)F)cc4)nn3)CC2)c1 [Example 57, N-(3-(1-((1-(4-(trifluoromethyl)benzyl)-1H-1,2,3-triazol-4-yl)methyl)piperidin-4-yl)phenyl)methanesulfonamide] | < 500 | – |
| Oc1cccc(C2CCN(Cc3cn(-c4ccccc4O)nn3)CC2)c1 [Example 58, 2-(4-((4-(3-hydroxyphenyl)piperidin-1-yl)methyl)-1H-1,2,3-triazol-1-yl)phenol] | < 500 | – |
| Oc1cccc(C2CCN(Cc3cn(-c4ccc(C(F)(F)F)nc4)nn3)CC2)c1 [Example 60, 3-(1-((1-(6-(trifluoromethyl)pyridin-3-yl)-1H-1,2,3-triazol-4-yl)methyl)piperidin-4-yl)phenol] | < 100 | – |
| CO[C@@H]1Cc2ccccc2[C@H]1n1cc(CN2CCC(c3cccc(O)c3)CC2)nn1 [Example 61, 3-(1-((1-((1R,2R)-2-methoxy-2,3-dihydro-1H-inden-1-yl)-1H-1,2,3-triazol-4-yl)methyl)piperidin-4-yl)phenol] | < 100 | – |
| CS(=O)(=O)Nc1cccc(C2CCN(Cc3cn(-c4ccccc4)nn3)CC2)c1 [Example 62, N-(3-(1-((1-phenyl-1H-1,2,3-triazol-4-yl)methyl)piperidin-4-yl)phenyl)methanesulfonamide] | < 100 | – |
| Oc1cccc(C2CCN(Cc3cn(Cc4cccc(F)c4)nn3)CC2)c1 [Example 63, 3-(1-((1-(3-fluorobenzyl)-1H-1,2,3-triazol-4-yl)methyl)piperidin-4-yl)phenol] | < 100 | – |
| Oc1cccc(C2CCN(Cc3cn(C4CCC(F)(F)CC4)nn3)CC2)c1 [Example 64, 3-(1-((1-(4,4-difluorocyclohexyl)-1H-1,2,3-triazol-4-yl)methyl)piperidin-4-yl)phenol] | < 100 | – |
| Oc1cccc(C2CCN(Cc3cn([C@H]4c5ccccc5C[C@@H]4O)nn3)CC2)c1 [Example 65, (1S,2S)-1-(4-((4-(3-hydroxyphenyl)piperidin-1-yl)methyl)-1H-1,2,3-triazol-1-yl)-2,3-dihydro-1H-inden-2-ol] | < 500 | – |
| Oc1cccc(C2CCN(Cc3cn([C@@H]4CCCC[C@H]4O)nn3)CC2)c1 [Example 66, 3-(1-((1-((1R,2R)-2-hydroxycyclohexyl)-1H-1,2,3-triazol-4-yl)methyl)piperidin-4-yl)phenol] | < 500 | – |
| OCC(c1ccccc1)n1cc(CN2CCC(c3cccc(O)c3)CC2)nn1 (stereo not shown) [Example 67, 3-(1-((1-(2-hydroxy-1-phenylethyl)-1H-1,2,3-triazol-4-yl)methyl)piperidin-4-yl)phenol] | < 500 | – |
| CS(=O)(=O)Nc1cccc(C2CCN(Cc3cn(C4CCC(F)(F)CC4)nn3)CC2)c1 [Example 68, N-(3-(1-((1-(4,4-difluorocyclohexyl)-1H-1,2,3-triazol-4-yl)methyl)piperidin-4-yl)phenyl)methanesulfonamide] | – | ++ |
| CCC(=O)Nc1cccc(C2CCN(Cc3cn([C@@H]4c5ccccc5C[C@H]4O)nn3)CC2)c1 [Example 69, N-(3-(1-((1-((1R,2R)-2-hydroxy-2,3-dihydro-1H-inden-1-yl)-1H-1,2,3-triazol-4-yl)methyl)piperidin-4-yl)phenyl)propionamide] | – | ++ |
| Oc1cccc(C2CCN(Cc3cn([C@@H]4Cc5ccccc5[C@@H]4F)nn3)CC2)c1 [Example 71, 3-(1-((1-((1S,2R)-1-fluoro-2,3-dihydro-1H-inden-2-yl)-1H-1,2,3-triazol-4-yl)methyl)piperidin-4-yl)phenol] | < 100 | – |
| Oc1cccc(C2CCN(Cc3cn([C@@H]4Cc5ccccc5[C@H]4F)nn3)CC2)c1 [Example 72, 3-(1-((1-((1R,2R)-1-fluoro-2,3-dihydro-1H-inden-2-yl)-1H-1,2,3-triazol-4-yl)methyl)piperidin-4-yl)phenol] | < 100 | – |
